From patent US10040810B2, “Derivatives of bisacylphosphinic acid, their preparation and use as photoinitiators” (priority 2012, dated 2018) come the findings set out here.

The series can be described thus: Solubility in water. In kind it is physicochemical. The procedure: 50 mg of the photoinitiator of example 1 is added to 1 ml of distilled water and the suspension stirred at room temperature for 60 minutes. Non-dissolved material is filtered off, dried in vacuo and weighed. The solubility is approximately 5 mg/ml.

Each structure is given as a SMILES string. ≈ marks a conversion by molar mass, not a printed value.

Turning to `Cc1cc(C)c(C(=O)P(=O)(O)C(=O)c2c(C)cc(C)cc2C)c(C)c1` [Example 1, bis(2,4,6-trimethyl-benzoyl)-phosphinic acid], the solubility (commonly the dissolved amount per volume that the medium holds) at 60 min (thermodynamic from solid, distilled water, room temperature, 60 minutes stirring) was approximately 5000 µg/mL (≈ 14 mM). In addition, where the note is “water, preparation of formulation 4c”, the “solubility in water (in words)” value is “low solubility”.
